Source: PubChem BioAssay AID248 (DTP/NCI, 2004)
Several values for one entry are separate records, joined by “and”; a condition that tells them apart may be missing. Equal entries are not always repeated. Toxic doses and inconclusive results are not listed. Rule as the data show it: active = T/C of 150% or more; inactive = T/C below 125%.

Tested on: L1210 leukemia ip in BDF1 mice, survival T/C
Assay: NCI In Vivo Anticancer Drug Screen. Data for tumor model L1210 Leukemia (intraperitoneal) in B6D2F1 (BDF1) mice
Details: endpoint: mean survival time, higher = longer survival
Summary of the method: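 Read-out is survival time, reported as the treated-group measurement over the vehicle-control measurement.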

[1] = dose: 100.0 mg/kg/injection, schedule: Q04DX003 (ip), vehicle: saline with Tween-80
[2] = dose: 200.0 mg/kg/injection, schedule: Q04DX003 (ip), vehicle: saline with Tween-80
[3] = dose: 400.0 mg/kg/injection, schedule: Q04DX003 (ip), vehicle: saline with Tween-80
[4] = dose: 100.0 mg/kg/injection, schedule: Q04DX003 (ip), vehicle: saline
[5] = dose: 200.0 mg/kg/injection, schedule: Q04DX003 (ip), vehicle: saline
[6] = dose: 400.0 mg/kg/injection, schedule: Q04DX003 (ip), vehicle: saline
[7] = dose: 100.0 mg/kg/injection, schedule: Q01DX001 (ip), vehicle: saline
[8] = dose: 200.0 mg/kg/injection, schedule: Q01DX001 (ip), vehicle: saline
[9] = dose: 400.0 mg/kg/injection, schedule: Q01DX001 (ip), vehicle: saline

Measured: T/C

Cc1ccc(S(=O)(=O)OCC2OC(n3cnc4c(N)ncnc43)C(O)C2O)cc1 (stereo unspecified)
inactive: dose: 100.0 mg/kg/injection, schedule: Q01DX005 (ip), vehicle: saline 105 % of control | dose: 200.0 mg/kg/injection, schedule: Q01DX005 (ip), vehicle: saline 95 % of control

COC(=O)c1cc(Cl)cc(C(=O)OC)c1
inactive: [1] 96 % of control | [2] 93 % of control | [3] 93 % of control

NC(=S)N=Nc1c(O)cc(O)c2[nH]c(=O)ccc12
inactive: dose: 5.0 mg/kg/injection, schedule: Q01DX001 (ip), vehicle: saline 101 % of control | dose: 10.0 mg/kg/injection, schedule: Q01DX001 (ip), vehicle: saline 101 % of control | dose: 20.0 mg/kg/injection, schedule: Q01DX001 (ip), vehicle: saline 103 % of control | dose: 40.0 mg/kg/injection, schedule: Q01DX001 (ip), vehicle: saline 105 % of control | dose: 80.0 mg/kg/injection, schedule: Q01DX001 (ip), vehicle: saline 108 % of control

CCCCOP(=S)(Nc1ccccc1)OCCCC
inactive: dose: 100.0 mg/kg/injection, schedule: Q04DX003 (ip), vehicle: Klucel (hydroxypropylcellulose) (HPC) 107 % of control | dose: 200.0 mg/kg/injection, schedule: Q04DX003 (ip), vehicle: Klucel (hydroxypropylcellulose) (HPC) 107 % of control | dose: 400.0 mg/kg/injection, schedule: Q04DX003 (ip), vehicle: Klucel (hydroxypropylcellulose) (HPC) 122 % of control

Nc1cc(C(=O)O)[nH]c(=O)n1
inactive: dose: 100.0 mg/kg/injection, schedule: Q01DX Z (ip), vehicle: methylcellulose (MC) 97 % of control

O=[N+]([O-])c1ccc(C[Se]c2ncnc3c(C4OC(CO)C(O)C4O)[nH]nc23)cc1 (stereo unspecified)
inactive: dose: 12.5 mg/kg/injection, schedule: Q01DX005 (ip), vehicle: saline 98 % of control | dose: 25.0 mg/kg/injection, schedule: Q01DX005 (ip), vehicle: saline 104 % of control | dose: 50.0 mg/kg/injection, schedule: Q01DX005 (ip), vehicle: saline 93 % of control

CCCCCCCCCCCCO[P+](=O)OCCCCCCCCCCCC
inactive: dose: 100.0 mg/kg/injection, schedule: Q01DX009 (ip), vehicle: saline sonified 93 % of control | [4] 95 % of control | dose: 200.0 mg/kg/injection, schedule: Q01DX009 (ip), vehicle: saline sonified 93 % of control | [5] 100 % of control | dose: 222.0 mg/kg/injection, schedule: Q01DX Z (ip), vehicle: methylcellulose (MC) 96 % of control | dose: 333.0 mg/kg/injection, schedule: Q01DX Z (ip), vehicle: methylcellulose (MC) 95 % of control | [6] 90 % of control

Cc1ccc(/C(C#N)=C2C=C(Br)/C(=N\O)C=C/2Cl)cc1
inactive: dose: 150.0 mg/kg/injection, schedule: Q01DX009 (ip), vehicle: saline with Tween-80 97 % of control | dose: 225.0 mg/kg/injection, schedule: Q01DX009 (ip), vehicle: saline with Tween-80 90 % of control

Cn1nnc(N)n1
inactive: [7] 98 % of control | [4] 102 % of control | [8] 100 % of control | [5] 96 % of control | [9] 100 % of control | [6] 102 % of control

COc1ccc(C2NCCCC2c2ccccc2)cc1 (stereo unspecified)
inactive: dose: 100.0 mg/kg/injection, schedule: Q01DX001 (ip), vehicle: carboxymethylcellulose (CMC) 102 % of control | dose: 200.0 mg/kg/injection, schedule: Q01DX001 (ip), vehicle: carboxymethylcellulose (CMC) 94 % of control | dose: 400.0 mg/kg/injection, schedule: Q01DX001 (ip), vehicle: carboxymethylcellulose (CMC) 110 % of control

C[N+]1(C2CCC3CCC2C3O)CCOCC1 (stereo unspecified)
inactive: dose: 50.0 mg/kg/injection, schedule: Q01DX009 (ip), vehicle: saline 106 % of control and 124 % of control | dose: 100.0 mg/kg/injection, schedule: Q01DX009 (ip), vehicle: saline 100 % of control | [4] 103 % of control and 101 % of control | dose: 200.0 mg/kg/injection, schedule: Q01DX009 (ip), vehicle: saline 98 % of control | [5] 97 % of control and 105 % of control

COC(=O)C1C=CCC(C(=O)OC)C1 (stereo unspecified)
inactive: dose: 100.0 mg/kg/injection, schedule: Q01DX009 (ip), vehicle: saline with Tween-80 91 % of control | [1] 109 % of control | dose: 200.0 mg/kg/injection, schedule: Q01DX009 (ip), vehicle: saline with Tween-80 96 % of control | [2] 96 % of control | dose: 400.0 mg/kg/injection, schedule: Q01DX009 (ip), vehicle: saline with Tween-80 100 % of control | [3] 93 % of control

Nc1ccc(N=Nc2ccc(OCCN(CCO)CCO)cc2)c(N)n1
inactive: [7] 93 % of control | [8] 98 % of control

O=[N+]([O-])c1ccc(-c2nn[nH]n2)cc1
inactive: [7] 92 % of control | [4] 103 % of control | [8] 103 % of control | [5] 93 % of control | dose: 264.0 mg/kg/injection, schedule: Q04DX003 (ip), vehicle: acetone 96 % of control | dose: 264.0 mg/kg/injection, schedule: Q04DX003 (ip), vehicle: saline with Tween-80 106 % of control | [9] 105 % of control | dose: 400.0 mg/kg/injection, schedule: Q04DX003 (ip), vehicle: acetone 102 % of control

NNc1ncnc2nc[nH]c12
inactive: dose: 12.0 mg/kg/injection, schedule: Q01DX015 (ip), vehicle: saline 93 % of control | dose: 25.0 mg/kg/injection, schedule: Q01DX015 (ip), vehicle: saline 101 % of control | dose: 50.0 mg/kg/injection, schedule: Q01DX015 (ip), vehicle: saline 104 % of control | dose: 75.0 mg/kg/injection, schedule: Q01DX001 (ip), vehicle: saline 105 % of control | dose: 100.0 mg/kg/injection, schedule: Q01DX015 (ip), vehicle: saline 116 % of control | dose: 150.0 mg/kg/injection, schedule: Q01DX001 (ip), vehicle: saline 102 % of control | dose: 300.0 mg/kg/injection, schedule: Q01DX001 (ip), vehicle: saline 114 % of control

CC(=O)OC1COC(n2cnc3c(N4CCCCC4)ncnc32)C(OC(C)=O)C1OC(C)=O (stereo unspecified)
inactive: [7] 100 % of control | [8] 96 % of control | [9] 96 % of control
